According to patent US20170035845A1, “Compositions and Methods for Inhibiting Pro-Inflammatory Cytokine Gene Expression” (The Regents of the University of California, priority 2015, published 2017):

What was measured:
THP-1 macrophages = test: Cytokine secretion ELISA, LPS-stimulated differentiated THP-1 cells; type: cell-based, human
Experimental: THP-1 monocytes (ATCC, Manassas, Va.) were cultured in RPMI 1640+10% FBS and penicillin/streptomycin (P/S). THP-1 Dual cells (Invivogen, San Diego, Calif.) which express the NF-κB reporter, secreted embryonic alkaline phosphatase (SEAP), were grown in RPMI 1640+10% HI-FBS and antibiotics. THP-1 cell differentiation was induced by treatment of cells (˜3.3×10^5 cells/ml) with 100 nM PMA and cultured for 2 days. HEK-Blue™ hTLR9 cells (Invivogen) were grown in DMEM medium containing 10% HI-FBS, P/S and normocin. Cells were cultured at 37° C. in 5% CO2. Cytokine assays. PMA-differentiated THP-1 cells (˜8×10^5 cells) cultured in 6-well plates were washed twice with complete medium and grown in fresh medium containing 1% FBS for 24 hours. Cells were washed twice with fresh medium and incubated for 2 hours prior to further manipulation. Cells were stimulated with 100 ng/ml LPS in the presence or absence of 10 μg/ml RTD-1 or vehicle (0.01% acetic acid) for 2 hours. In some experiments, cells were first incubated for 1 hour with 10 μg/ml of marimastat or vehicle (DMSO), after which LPS and/or RTD-1 were added and incubated for 2 hours as above. Peripheral blood CD14+ monocytes (Lonza, Walkersville, Md.) were thawed, rinsed with RPMI 1640 containing 10% HI FBS, P/S and normocin and then resuspended in RPMI 1640 containing 1% HI FBS plus antibiotics as above (10^6 cells/nil) for 2 hours. The cells were then stimulated for 4 hours as described in the legend. Medium was collected, clarified by centrifugation first at 250×g for 8 minutes and then at 5000×g for 5 minutes. TNF-α, IL-1β and IL-8 were quantified by ELISA (Life Technologies, Carlsbad, Calif.).

NF-κB = NF-κB activity assay (SEAP reporter, Quantiblue) in THP-1 Dual cells; type: cell-based, human
Experimental: (§1) One ml aliquots of PMA-differentiated THP-1 Dual cells (3.3×10^5 cells/nil) in 24 well tissue culture plates were starved for 1 day in complete medium with 1% HI FBS as described above. For experiments with S7 peptide, 0.5 ml cultures in 48 well plates were used. Fresh medium containing 1% HI FBS was added to the cells and after 2 hours cells were stimulated with 100 ng/ml LPS or 25 ng/ml Pam3CSK4 in the presence of RTD-1 or 0.01% acetic acid (HOAc, vehicle). In some experiments cells were pre-incubated with marimastat, Ly294002 or vehicle for 1 hour prior to addition of LPS and/or RTD-1 (SEQ ID NO. 1). Following overnight incubation, medium was clarified by centrifugation and SEAP activity was determined using Quantiblue reagent at 37° C. and measurement of absorbance at 625 nm. To test the effect of RTD-1 on TLR9-dependent NF-κB activation, 2×10^5 HEK-Blue™ hTLR9 cells/ml were cultured for 1 day in 24 well plates and stimulated overnight with ODN2006 with or without RTD-1. Medium was harvested and SEAP activity was assayed using Quantiblue™ as above. NF-κB activation was defined as fold stimulation of SEAP activity with respect to control cells.

[1] = system: TLR9-dependent NF-κB activation; test: TLR9-dependent NF-κB activation (SEAP) in HEK-Blue hTLR9 cells; type: cell-based, human; details: ODN2006, RTD-1 10 μg/ml
Experimental: as §1

NF-κB p65 = test: NF-κB DNA-binding activity (p65 ELISA) in THP-1 nuclear extracts; type: cell-based, human
Experimental: Nuclear extracts were prepared (nuclear extraction kit; Cayman Chemical Co., Ann Arbor, Mich.) from differentiated THP-1 cells treated for 30 minutes with vehicle, LPS (100 ng/ml) or TNF-α (2 ng/ml) in the presence or absence of 10 μg/ml RTD-1 (SEQ ID NO. 1). NF-κB DNA binding was quantified by p65 ELISA (Cayman Chemical Co.). Non-specific DNA-binding, positive control extract and positive control extract treated with competitor DNA control included with the ELISA were used to confirm specificity of DNA-binding.

[2] = system: peripheral blood leukocytes; test: Cytokine secretion by peripheral blood leukocytes stimulated with TLR agonists; type: cell-based, human; details: stimulated by agonists of TLRs 2, 4, 5, and 8
whole blood = test: TNF-α secretion by E. coli stimulated whole blood; type: cell-based
[3] = system: peripheral blood leukocytes; details: human peripheral blood leukocytes, diverse TLR agonists (Schaal et al 2012); cited from earlier work
inflammatory cytokines = details: mouse models; cited from earlier work
[4] = LPS 100 ng/ml, 2 hours, RTD-1 10 μg/ml, THP-1 macrophages
[5] = LPS 100 ng/ml, comparison RTD-1 versus marimastat

RTD-1: rhesus theta-defensin 1, macrocyclic tri-disulfide θ-defensin peptide, SEQ ID NO. 1, synthetic (cyclo(GFCRCLCRRGVCRCICTR); disulfide (positions not given here); not fully specified (bridges); also: three disulfides, places not given here; listed as Macaca mulatta)
suppression of secretion of IL-1β (THP-1 macrophages; [4]): > 90%
suppression of secretion of IL-8 (THP-1 macrophages; [4]): > 90%
suppression of secretion of TNF-α (THP-1 macrophages; [4]): > 90%
release of TNF-α by LPS-stimulated THP-1 cells (THP-1 macrophages; [5]): blocked both cytokines effectively
secretion of IL-1β by LPS-stimulated THP-1 cells (THP-1 macrophages; [5]): blocked both cytokines effectively
effect on THP-1 cytokine secretion (THP-1 macrophages; RTD-1 alone, no LPS): no effect
dose dependence of inhibition of NF-κB activation (NF-κB; LPS 100 ng/ml, RTD-1 5 and 10 μg/ml): dose dependent
LPS-stimulated NF-κB activation (NF-κB; LPS 100 ng/ml, comparison RTD-1 versus marimastat, RTD-1 in the presence or absence of marimastat): potent inhibitor
suppression of LPS-induced NF-κB activation (NF-κB; LPS 100 ng/ml, simultaneous RTD-1 10 μg/ml, THP-1 Dual cells): ~70%
direct effect on the enzymatic activity of the SEAP reporter (NF-κB; LPS/RTD-1 control): no direct effect
inhibition of Pam3CSK4-induced NF-κB activity (NF-κB; Pam3CSK4 25 ng/ml, RTD-1 10 μg/ml): ~70%
effect on NF-κB activation (NF-κB; RTD-1 alone, no LPS): no effect
suppression of ODN2006-mediated NF-κB activation [1]: to baseline levels
NF-κB DNA binding, LPS-stimulated (NF-κB p65; LPS 100 ng/ml, RTD-1 10 μg/ml, 30 minutes): to baseline levels
translocation of NF-κB p65 to the nucleus (NF-κB p65; LPS stimulated macrophages, Western blot of nuclear extracts): inhibit translocation
suppression of TNF-α-stimulated NF-κB DNA binding (NF-κB p65; TNF-α 2 ng/ml, RTD-1 10 μg/ml, 30 minutes, compared with TNF-α alone): ~35%
secretion of several inflammatory cytokines [2]: suppressed secretion
speed of blockade of TNF-α secretion (whole blood): extremely rapid
binding to LPS (Binding to LPS): binds inefficiently
inhibition of cytokine secretion [3]: potent inhibitor
inflammatory cytokines, including TNF-α, IL-1β and several chemokines (inflammatory cytokines): reduce inflammatory cytokines
